Laboratory results reported in ChEMBL document CHEMBL1201862, “PubChem BioAssay data set” (2004).
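Each compound was tested at five concentrations against cells in 96-well plates for 48 hours. GI50 is the concentration that inhibits growth by half.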 Active and inactive are the calls of the source. Rule as the data show it: active = GI50 up to about 1.1 µM and inactive = higher.

Legend:
Assay in all cases: NCI anticancer screen, dose series, 48 h
BT-549 = test system: BT-549
NCI-H226 = test system: NCI-H226
UACC-257 = test system: UACC-257
A498 = test system: A498
IGROV-1 = test system: IGROV-1
OVCAR-3 = test system: OVCAR-3
SW-620 = test system: SW-620
EKVX = test system: EKVX
SF-268 = test system: SF-268
NCI-H522 = test system: NCI-H522
Hs-578T = test system: Hs-578T
MDA-N = test system: MDA-N
OVCAR-8 = test system: OVCAR-8
NCI/ADR-RES = test system: NCI/ADR-RES
SF-295 = test system: SF-295
A549 = test system: A549
LOX IMVI = test system: LOX IMVI
UO-31 = test system: UO-31
HCT-116 = test system: HCT-116
KM12 = test system: KM12
UACC-62 = test system: UACC-62
SN12C = test system: SN12C
HT-29 = test system: HT-29
PC-3 = test system: PC-3
SNB-75 = test system: SNB-75
SR = test system: SR
CCRF-CEM = test system: CCRF-CEM
K562 = test system: K562
ACHN = test system: ACHN
CAKI-1 = test system: CAKI-1
COLO 205 = test system: COLO 205
SK-MEL-2 = test system: SK-MEL-2
RXF 393 = test system: RXF 393
MOLT-4 = test system: MOLT-4
786-0 = test system: 786-0
SK-OV-3 = test system: SK-OV-3
HL-60 = test system: HL-60
MDA-MB-231 = test system: MDA-MB-231
HCC 2998 = test system: HCC 2998
RPMI-8226 = test system: RPMI-8226
NCI-H460 = test system: NCI-H460
NCI-H23 = test system: NCI-H23
Malme-3M = test system: Malme-3M
OVCAR-4 = test system: OVCAR-4
HCT-15 = test system: HCT-15
SNB-19 = test system: SNB-19
SF-539 = test system: SF-539
OVCAR-5 = test system: OVCAR-5
HOP-92 = test system: HOP-92
MCF7 = test system: MCF7
HOP-62 = test system: HOP-62
TK-10 = test system: TK-10
T47D = test system: T47D
SK-MEL-28 = test system: SK-MEL-28
U-251 = test system: U-251
SK-MEL-5 = test system: SK-MEL-5
DU-145 = test system: DU-145
M14 = test system: M14
MDA-MB-435 = test system: MDA-MB-435

`CN(CCn1cnc2c1c(=O)n(C)c(=O)n2C)C1CCCCC1` was tested, and the GI50 (BT-549) was > 100 µM (inactive), the GI50 (NCI-H226) was > 100 µM (inactive) and the GI50 (UACC-257) was > 100 µM (inactive). The GI50 (A498) was > 100 µM (inactive), the GI50 (IGROV-1) was > 100 µM (inactive) and the GI50 (OVCAR-3) was > 100 µM (inactive). For the same compound, the GI50 (SW-620) was > 100 µM (inactive), the GI50 (EKVX) was > 100 µM (inactive) and the GI50 (SF-268) was > 100 µM (inactive). For the same compound, the GI50 (NCI-H522) was > 100 µM (inactive), the GI50 (Hs-578T) was > 100 µM (inactive) and the GI50 (MDA-N) was > 100 µM (inactive). The GI50 (OVCAR-8) was > 100 µM (inactive), the GI50 (NCI/ADR-RES) was > 100 µM (inactive) and the GI50 (SF-295) was > 100 µM (inactive). For the same compound, the GI50 (A549) was > 100 µM (inactive), the GI50 (LOX IMVI) was > 100 µM (inactive) and the GI50 (UO-31) was > 100 µM (inactive). For the same compound, the GI50 (HCT-116) was > 100 µM (inactive), the GI50 (KM12) was > 100 µM (inactive) and the GI50 (UACC-62) was > 100 µM (inactive). The GI50 (SN12C) was > 100 µM (inactive), the GI50 (HT-29) was > 100 µM (inactive) and the GI50 (PC-3) was > 100 µM (inactive). The GI50 (SNB-75) was > 100 µM (inactive), the GI50 (SR) was > 100 µM (inactive) and the GI50 (CCRF-CEM) was > 100 µM (inactive). The GI50 (K562) was > 100 µM (inactive), the GI50 (ACHN) was > 100 µM (inactive) and the GI50 (CAKI-1) was > 100 µM (inactive). For the same compound, the GI50 (COLO 205) was > 100 µM (inactive), the GI50 (SK-MEL-2) was > 100 µM (inactive) and the GI50 (RXF 393) was > 100 µM (inactive). For the same compound, the GI50 (MOLT-4) was > 100 µM (inactive), the GI50 (786-0) was > 100 µM (inactive) and the GI50 (SK-OV-3) was > 100 µM (inactive). For the same compound, the GI50 (HL-60) was > 100 µM (inactive), the GI50 (MDA-MB-231) was > 100 µM (inactive) and the GI50 (HCC 2998) was > 100 µM (inactive). For the same compound, the GI50 (RPMI-8226) was > 100 µM (inactive), the GI50 (NCI-H460) was > 100 µM (inactive) and the GI50 (NCI-H23) was > 100 µM (inactive). For the same compound, the GI50 (Malme-3M) was > 100 µM (inactive), the GI50 (OVCAR-4) was > 100 µM (inactive) and the GI50 (HCT-15) was over 100 µM. The GI50 (SNB-19) was > 100 µM (inactive), the GI50 (SF-539) was > 100 µM (inactive) and the GI50 (OVCAR-5) was > 100 µM (inactive). For the same compound, the GI50 (HOP-92) was > 100 µM (inactive), the GI50 (MCF7) was > 100 µM (inactive) and the GI50 (HOP-62) was > 100 µM (inactive). The GI50 (TK-10) was > 100 µM (inactive), the GI50 (T47D) was > 100 µM (inactive) and the GI50 (SK-MEL-28) was > 100 µM (inactive). For the same compound, the GI50 (U-251) was > 100 µM (inactive), the GI50 (SK-MEL-5) was > 100 µM (inactive) and the GI50 (DU-145) was > 100 µM (inactive). For the same compound, the GI50 (M14) was > 100 µM (inactive) and the GI50 (MDA-MB-435) was > 100 µM (inactive).

In the case of `COc1ccc(C(=C2C(=O)N(c3ccccc3)C(=O)C2=C(C)C)c2ccc(OC)cc2)cc1`, the GI50 (BT-549) is reported as 12.4 µM (inactive), the GI50 (NCI-H226) is reported as 4.56 µM (inactive) and the GI50 (UACC-257) is reported as 5.05 µM (inactive). For the same compound, the GI50 (A498) was 2.94 µM (inactive), the GI50 (IGROV-1) was 3.44 µM (inactive) and the GI50 (OVCAR-3) was 3.56 µM (inactive). For the same compound, the GI50 (SW-620) was 3.19 µM (inactive), the GI50 (EKVX) was 2.94 µM (inactive) and the GI50 (SF-268) was 9.95 µM (inactive). The GI50 (NCI-H522) was 1.5 µM (inactive), the GI50 (Hs-578T) was 3.69 µM (inactive) and the GI50 (MDA-N) was 1.7 µM (inactive). The GI50 (OVCAR-8) was 8.41 µM (inactive), the GI50 (NCI/ADR-RES) was 2.57 µM (inactive) and the GI50 (SF-295) was 3.17 µM (inactive). The GI50 (A549) was 5.21 µM (inactive), the GI50 (LOX IMVI) was 3.72 µM (inactive) and the GI50 (UO-31) was 2.75 µM (inactive). For the same compound, the GI50 (HCT-116) was 3.72 µM (inactive), the GI50 (KM12) was 3.53 µM (inactive) and the GI50 (UACC-62) was 3.41 µM (inactive). For the same compound, the GI50 (SN12C) was 4.02 µM (inactive), the GI50 (HT-29) was 2.43 µM (inactive) and the GI50 (PC-3) was 4.33 µM (inactive). For the same compound, the GI50 (SNB-75) was 2.87 µM (inactive), the GI50 (SR) was 1.09 µM (active) and the GI50 (CCRF-CEM) was 0.546 µM (active). The GI50 (K562) was 3.27 µM (inactive), the GI50 (ACHN) was 4.69 µM (inactive) and the GI50 (CAKI-1) was 3.66 µM (inactive). For the same compound, the GI50 (COLO 205) was 2.96 µM (inactive), the GI50 (SK-MEL-2) was 3.97 µM (inactive) and the GI50 (RXF 393) was 2.09 µM (inactive). The GI50 (MOLT-4) was 2.54 µM (inactive), the GI50 (786-0) was 3.43 µM (inactive) and the GI50 (SK-OV-3) was 4.79 µM (inactive). The GI50 (HL-60) was 0.998 µM (active), the GI50 (MDA-MB-231) was 5.09 µM (inactive) and the GI50 (HCC 2998) was 5.5 µM (inactive). For the same compound, the GI50 (RPMI-8226) was 4.1 µM (inactive), the GI50 (NCI-H460) was 4.22 µM (inactive) and the GI50 (NCI-H23) was > 28 µM (inactive). The GI50 (Malme-3M) was 6.75 µM (inactive), the GI50 (OVCAR-4) was 3.23 µM (inactive) and the GI50 (HCT-15) was 2.92 µM. For the same compound, the GI50 (SNB-19) was 4.07 µM (inactive), the GI50 (SF-539) was 2.99 µM (inactive) and the GI50 (OVCAR-5) was 8.69 µM (inactive). For the same compound, the GI50 (HOP-92) was 10.3 µM (inactive), the GI50 (MCF7) was 3.44 µM (inactive) and the GI50 (HOP-62) was 9.02 µM (inactive). The GI50 (TK-10) was 14 µM (inactive), the GI50 (T47D) was 3.27 µM (inactive) and the GI50 (SK-MEL-28) was 3.09 µM (inactive). For the same compound, the GI50 (U-251) was 3.37 µM (inactive), the GI50 (SK-MEL-5) was 4.61 µM (inactive) and the GI50 (DU-145) was 6.14 µM (inactive). The GI50 (M14) was 2.4 µM (inactive) and the GI50 (MDA-MB-435) was 1.45 µM (inactive).

`COc1ccc2nc3ccc(OC)cc3c(SCCO)c2c1` was tested, and the GI50 (BT-549) was 31.3 µM (inactive), the GI50 (NCI-H226) was > 61.7 µM (inactive) and the GI50 (UACC-257) was 32.7 µM (inactive). The GI50 (A498) was > 58.1 µM (inactive), the GI50 (IGROV-1) was 15 µM (inactive) and the GI50 (OVCAR-3) was 36 µM (inactive). The GI50 (SW-620) was 28.4 µM (inactive), the GI50 (EKVX) was 31.7 µM (inactive) and the GI50 (SF-268) was 25.2 µM (inactive). The GI50 (NCI-H522) was 4.56 µM (inactive), the GI50 (Hs-578T) was 15.4 µM (inactive) and the GI50 (MDA-N) was 9.62 µM (inactive). For the same compound, the GI50 (OVCAR-8) was 17 µM (inactive), the GI50 (NCI/ADR-RES) was 27 µM (inactive) and the GI50 (SF-295) was 49.2 µM (inactive). The GI50 (A549) was > 78.7 µM (inactive), the GI50 (LOX IMVI) was 8.43 µM (inactive) and the GI50 (UO-31) was 29.3 µM (inactive). The GI50 (HCT-116) was 15.8 µM (inactive), the GI50 (KM12) was 22.5 µM (inactive) and the GI50 (UACC-62) was 38.5 µM (inactive). The GI50 (SN12C) was 26.4 µM (inactive), the GI50 (HT-29) was 17.3 µM (inactive) and the GI50 (PC-3) was 27.4 µM (inactive). The GI50 (SNB-75) was 28.6 µM (inactive), the GI50 (SR) was 19 µM (inactive) and the GI50 (CCRF-CEM) was 3.61 µM (inactive). For the same compound, the GI50 (K562) was 9.91 µM (inactive), the GI50 (ACHN) was 23.7 µM (inactive) and the GI50 (CAKI-1) was 13.4 µM (inactive). The GI50 (COLO 205) was 23.6 µM (inactive), the GI50 (SK-MEL-2) was 30 µM (inactive) and the GI50 (RXF 393) was 12.6 µM (inactive). The GI50 (MOLT-4) was 3.03 µM (inactive), the GI50 (786-0) was 14.4 µM (inactive) and the GI50 (SK-OV-3) was 54.5 µM (inactive). For the same compound, the GI50 (HL-60) was 4.17 µM (inactive), the GI50 (MDA-MB-231) was 34.7 µM (inactive) and the GI50 (HCC 2998) was > 75 µM (inactive). For the same compound, the GI50 (RPMI-8226) was 12.3 µM (inactive), the GI50 (NCI-H460) was 68.9 µM (inactive) and the GI50 (NCI-H23) was 16.2 µM (inactive). The GI50 (Malme-3M) was 15.6 µM (inactive), the GI50 (OVCAR-4) was 63.8 µM (inactive) and the GI50 (HCT-15) was 27.4 µM. For the same compound, the GI50 (SNB-19) was > 59.7 µM (inactive), the GI50 (SF-539) was 20.7 µM (inactive) and the GI50 (OVCAR-5) was > 100 µM (inactive). The GI50 (HOP-92) was > 67.5 µM (inactive), the GI50 (MCF7) was 6.01 µM (inactive) and the GI50 (HOP-62) was > 58.9 µM (inactive). For the same compound, the GI50 (TK-10) was 51.3 µM (inactive), the GI50 (T47D) was 15.8 µM (inactive) and the GI50 (SK-MEL-28) was 55.8 µM (inactive). The GI50 (U-251) was 65 µM (inactive), the GI50 (SK-MEL-5) was 32.1 µM (inactive) and the GI50 (DU-145) was 5.65 µM (inactive). The GI50 (M14) was 77.3 µM (inactive) and the GI50 (MDA-MB-435) was 21.5 µM (inactive).
